Laboratory results taken from publication PMC11992111 (Nature Communications, 2025).

Columns and labels:
Assay type in all cases: binding
AZG2 [1] = target: T1, AZG2 (Arabidopsis thaliana, UniProt Q84MA8); assay: ITC
T1 sequence (Q84MA8 1-530): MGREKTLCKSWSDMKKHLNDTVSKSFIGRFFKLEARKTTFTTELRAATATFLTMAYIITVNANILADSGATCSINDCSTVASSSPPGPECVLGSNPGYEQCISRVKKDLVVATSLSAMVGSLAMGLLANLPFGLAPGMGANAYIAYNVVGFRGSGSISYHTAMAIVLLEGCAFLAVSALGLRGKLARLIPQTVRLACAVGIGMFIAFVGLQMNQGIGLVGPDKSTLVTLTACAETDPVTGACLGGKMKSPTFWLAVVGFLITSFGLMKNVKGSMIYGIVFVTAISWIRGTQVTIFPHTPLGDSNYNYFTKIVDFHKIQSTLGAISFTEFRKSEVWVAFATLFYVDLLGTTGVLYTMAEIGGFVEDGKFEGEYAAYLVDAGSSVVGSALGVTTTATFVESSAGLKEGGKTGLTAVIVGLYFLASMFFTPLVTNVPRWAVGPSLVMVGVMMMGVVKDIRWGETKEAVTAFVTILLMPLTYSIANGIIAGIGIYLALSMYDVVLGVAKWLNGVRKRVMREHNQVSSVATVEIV

AZG1 = AZG1 (Arabidopsis thaliana, UniProt Q9SRK7); assay: ITC at pH […]
AZG2 [2] = target: T1, AZG2; assay: ITC at pH […]

Row | Kd (AZG2 [1]) | Kd (AZG1) | Kd (AZG2 [2]) | Compound
1 | 2090 ± 470 nM | – | – | c1ccc(CNc2ncnc3nc[nH]c23)cc1 [BA, benzyladenine]
2 | – | 620 ± 110 nM | 770 ± 90 nM | Nc1ncnc2nc[nH]c12 [adenine]
3 | 710 ± 80 nM | – | – | CC(C)=CCNc1ncnc2nc[nH]c12 [iP, N^6-(Δ^2-isopentenyl)adenine]
4 | 710 ± 90 nM | – | – | c1coc(CNc2ncnc3[nH]cnc23)c1 [kinetin]
